Values after ≈ are worked out from the molar mass of the structure shown. Read-outs that look alike come from different tables or passages of the source.
Key:
[1] = molecular target: Leucyl-tRNA synthetase (LeuRS) (Escherichia coli (strain K12), UniProt P07813); test: Leucyl-tRNA synthetase enzyme inhibition (AMP-Glo; single point % inhibition at 100 μM and IC50); assay type: biochemical
[2] = molecular target: Isoleucyl-tRNA synthetase (IleRS) (Escherichia coli (strain K12), UniProt P00956); test: Isoleucyl-tRNA synthetase enzyme inhibition (AMP-Glo; single point % inhibition at 100 μM and IC50); assay type: biochemical
Isoleucyl-tRNA synthetase (IleRS), sequence (P00956 whole entry, looked up): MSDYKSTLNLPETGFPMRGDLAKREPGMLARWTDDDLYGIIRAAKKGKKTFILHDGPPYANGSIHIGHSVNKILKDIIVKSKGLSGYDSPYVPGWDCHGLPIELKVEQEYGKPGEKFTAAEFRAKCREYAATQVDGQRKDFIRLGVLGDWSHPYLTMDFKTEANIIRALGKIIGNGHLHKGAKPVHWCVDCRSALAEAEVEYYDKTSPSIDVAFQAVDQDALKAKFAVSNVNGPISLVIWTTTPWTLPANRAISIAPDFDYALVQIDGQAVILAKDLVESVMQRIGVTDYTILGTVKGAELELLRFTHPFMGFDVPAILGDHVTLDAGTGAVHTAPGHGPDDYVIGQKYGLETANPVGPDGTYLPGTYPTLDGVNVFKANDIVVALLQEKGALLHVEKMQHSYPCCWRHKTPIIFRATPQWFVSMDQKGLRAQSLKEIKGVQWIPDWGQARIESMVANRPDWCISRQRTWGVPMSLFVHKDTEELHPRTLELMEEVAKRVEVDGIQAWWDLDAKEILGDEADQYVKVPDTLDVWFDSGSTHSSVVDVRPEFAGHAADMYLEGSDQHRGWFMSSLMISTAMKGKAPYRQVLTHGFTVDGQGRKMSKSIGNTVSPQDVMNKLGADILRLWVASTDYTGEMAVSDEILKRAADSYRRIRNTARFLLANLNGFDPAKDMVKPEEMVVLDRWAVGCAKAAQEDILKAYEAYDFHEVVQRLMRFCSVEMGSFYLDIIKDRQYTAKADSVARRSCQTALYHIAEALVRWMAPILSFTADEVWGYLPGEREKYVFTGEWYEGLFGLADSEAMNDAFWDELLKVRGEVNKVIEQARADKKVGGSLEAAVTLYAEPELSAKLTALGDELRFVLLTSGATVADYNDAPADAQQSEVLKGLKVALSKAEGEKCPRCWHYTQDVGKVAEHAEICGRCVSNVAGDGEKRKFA
Excerpt: Study 1—Enzyme Inhibition
The aminoacylation reaction catalyzed by aminoacyl-tRNA synthetases (aaRS) takes place in two steps. In the first step, aaRS activates its cognate amino acid with ATP; and in the second step the activated amino acid is loaded to its corresponding tRNA. This reaction can be summarized as follows: aaRS+aa+ATP=aaRS-aa-AMP+PPi aaRS-aa-AMP+tRNA=aa-tRNA+AMP+aaRS […]
wherein: aaRS, aminoacyl-tRNA synthetase; aa, amino acid; aaRS-aa-AMP, enzyme-bound to aminoacyl-adenylate; AMP, adenosine monophosphate; aa-tRNA, aminoacyl-tRNA, PPi, inorganic pyrophosphate.
Isoleucyl-tRNA Synthetase a. Single Point Percentage Inhibition
The activity of the pathogenic aaRSs was monitored by measuring AMP production using the commercial kit AMP-Glo (Promega, Madison, USA).
Ligand stock solutions were prepared in 100% DMSO at 10 mM concentration. An assay buffer consisting of 100 mM Tris HCl pH 7.6, 40 mM MgCl, 20 mM KCl and 150 mM NaCl was prepared in dH2O. An enzyme solution containing 51.77 μM IleRS was prepared in assay buffer to provide 30 nM final assay concentration and 75 nM reservoir concentration for a 1:2.5 dilution in the assay. A substrate solution was also prepared in assay buffer with 50 mM L-isoleucine, 10 mM ATP and 100 mg/mL tRNA. A final assay concentration of 500 μM L-isoleucine, 5 μM ATP and 1 mg/mL tRNA and reservoir concentration of 833.33 μM L-isoleucine, 8.33 μM ATP and 1.67 mg/mL tRNA was used for a 1:1.66 dilution in assay.
Enzyme percentage inhibition values were recorded in triplicate at a single point concentration of 100 μM.
Using the same enzymatic assay in a 384-well plate format, ten point concentration response curves were generated for each compound using a top concentration of 100 μM. The known inhibitor, IleAMS was used as a positive control for the IleRS assay. 100% DMSO was used as a negative control. The IC50 was calculated based on non-linear regression analysis.

[3] = Human cell viability / cytotoxicity (CellTiter-Glo, 24 hours); assay type: cell-based; conditions: human, HepG2 cells (ATCC HB-8065); HepG2 ATCC HB-8065, 24 hours; read-out: Cytotoxicity in HepG2 ATCC HB-8065 Cell Line, IC50
Outline: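 HepG2 cells (15,000/well, MEM with 1% NEAA and 1% pyruvate) were grown 2 days, then exposed to compounds in duplicate for 24 h at 1.28% DMSO. Viability was read as ATP by CellTiter-Glo luminescence relative to DMSO-only wells. IC50 is in μg/mL.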

[4] = system: bacteria (ATCC reference strains); test: Antibacterial activity, MIC by broth micro-dilution (CLSI)
E. coli UT189 = test: Efficacy in a murine model of urinary tract infection (microbial burden in urine, bladder, kidney); assay type: in vivo; conditions: Experiment 2, mouse UTI
Procedure: All animal studies were performed under UK Home Office License PA67E0BAA (protocol E9 for UTI model) with local ethical committee clearance. All studies were performed by technicians who have completed parts A, B and C of the UK Home Office Personal License course and hold current personal licenses. All experiments were performed in dedicated Biohazard 2 facilities (the site holds a Certificate of Designation). Female mice used in these studies were supplied by Janvier laboratories and were specific pathogen free. The strain of mouse used was C3H/HeNRj, which is a well characterized inbred strain. Mice were 16-20 g on receipt and were allowed to acclimatize for at least 7 days prior to any intervention. Five days prior to infection mice were transferred onto drinking water containing 5% glucose. […] It was stored at 4° C. between doses. Test articles were prepared by solubilising in water for injection, taking the salt correction factor into account. […] Mice (n=6 per group) were infected by directly administering 0.05 mL of inoculum via the urethra into the bladder under parenteral anaesthesia. Drinking water was withheld two hours pre-infection and bladders were emptied prior to infection. Once infected, infection catheters were left in the urinary tract for 10 minutes to reduce the risk of the organism flowing back out. The mice were monitored at a frequency appropriate for their clinical condition. Mouse weights were recorded at least once daily both to ensure animals remained within ethical limits and to monitor efficacy of treatment. Twenty-four hours post infection, urine was collected from pre-treatment animals and used to assess the infection level. Urine samples were quantitatively cultured onto MacConkey's agar plates and incubated at 37° C. for 24 hours before colonies were counted. In addition, five mice were euthanised by pentobarbitone overdose to provide a 24 hour pre-treatment control group. Forty-eight hours post-infection, urine was collected from all mice. Seventy-two hours post infection, the clinical condition and body weight of all remaining animals was assessed and urine samples were collected. Animals were then euthanised by pentobarbitone overdose and kidneys and bladders were removed and weighed. Tissue samples were homogenized using a Precellys 24 dual bead beater in 2 mL ice cold sterile phosphate buffered saline. Homogenates and urine samples were quantitatively cultured onto MacConkey's agar plates and incubated at 37° C. for 24 hours before colonies were counted. Data Analysis The data from the culture burdens were analysed using appropriate non-parametric statistical models (Kruskal-Wallis using Conover-Inman to make all pairwise comparisons between groups) with StatsDirect software, and compared to pretreatment and vehicle controls.

[5] = E. coli IleRS, read-out: Enzyme Inhibition - IC50, E. coli IleRS
[6] = Acinetobacter baumannii, read-out: Antibacterial Activity (MIC), E = A. baumannii B1931
[7] = Enterobacter cloacae, read-out: Antibacterial Activity (MIC), B = Enterobacter cloacae B1966
[8] = Escherichia coli, ATCC25922, read-out: Antibacterial Activity (MIC), A = E. coli ATCC 25922
[9] = Haemophilus influenzae, ATCC49247, read-out: Antibacterial Activity (MIC), F = H. influenzae ATCC 49247
[10] = Klebsiella pneumoniae, ATCC700603, read-out: Antibacterial Activity (MIC), C = K. pneumoniae ATCC 700603
[11] = Pseudomonas aeruginosa, ATCC27853, read-out: Antibacterial Activity (MIC), D = P. aeruginosa ATCC 27853

Leucyl-tRNA synthetase (LeuRS), sequence (P07813 whole entry, looked up): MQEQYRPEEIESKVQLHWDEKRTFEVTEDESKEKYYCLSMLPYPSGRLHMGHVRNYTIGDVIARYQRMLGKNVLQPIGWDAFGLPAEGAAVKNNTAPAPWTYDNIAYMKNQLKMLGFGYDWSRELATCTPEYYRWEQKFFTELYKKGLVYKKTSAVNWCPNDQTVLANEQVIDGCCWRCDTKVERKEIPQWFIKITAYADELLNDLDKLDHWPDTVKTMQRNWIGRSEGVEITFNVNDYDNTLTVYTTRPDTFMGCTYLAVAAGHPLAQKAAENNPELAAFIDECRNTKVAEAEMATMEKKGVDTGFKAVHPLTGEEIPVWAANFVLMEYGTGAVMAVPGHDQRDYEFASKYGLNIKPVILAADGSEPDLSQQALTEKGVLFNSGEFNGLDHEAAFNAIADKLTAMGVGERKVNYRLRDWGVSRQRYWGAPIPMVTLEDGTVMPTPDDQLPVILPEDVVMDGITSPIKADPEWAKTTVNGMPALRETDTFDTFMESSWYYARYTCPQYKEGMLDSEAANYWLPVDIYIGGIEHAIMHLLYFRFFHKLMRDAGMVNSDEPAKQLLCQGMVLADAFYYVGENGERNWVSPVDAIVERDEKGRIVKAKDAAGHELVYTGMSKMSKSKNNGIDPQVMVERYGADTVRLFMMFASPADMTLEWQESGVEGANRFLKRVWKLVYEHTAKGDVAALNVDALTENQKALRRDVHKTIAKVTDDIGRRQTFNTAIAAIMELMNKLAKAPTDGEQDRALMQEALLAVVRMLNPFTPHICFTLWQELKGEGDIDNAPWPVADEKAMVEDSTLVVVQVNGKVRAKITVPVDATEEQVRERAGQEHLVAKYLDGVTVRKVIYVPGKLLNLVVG

Row | Compound | IC50 [2, 5] [µM] | IC50 at 24 h [3] [µg/mL] | MIC [4, 6] [µg/mL] | MIC [4, 7] [µg/mL] | MIC [4, 8] [µg/mL] | MIC [4, 9] [µg/mL] | MIC [4, 10] [µg/mL] | MIC [4, 11] [µg/mL] | also measured
1 | CC1CCC(N)(C(=O)N=S(N)(=O)c2ccccc2)C1 (centres unmarked) [ANASIA-123] | > 100 | – | – | – | – | – | – | – | IC50 ([1]; E. coli LeuRS, read-out: Enzyme Inhibition - IC50, E. coli LeuRS): 4.87 µM
2 | CC[C@H](C)[C@H](N)C(=O)N=[S@](N)(=O)c1ccc(Cl)c(Cl)c1 [ANASIA-036-1] | – | > 64 | – | – | – | – | – | – | IC50 [2]: 7.86 µM
3 | CC[C@H](C)[C@H](N)C(=O)N=[S@@](N)(=O)c1ccc(Cl)s1.Cl [ANASIA-029-2] | 4.59 | > 64 | > 64 | > 64 | 64 | 16 | > 64 | > 64 | –
4 | CC[C@H](C)[C@H](N)C(=O)N=[S@@](N)(=O)c1ccc(C)s1.Cl [ANASIA-031-2] | 2.65 | > 64 | > 64 | 64 | 64 | 16 | > 64 | > 64 | –
5 | CC[C@H](C)[C@H](N)C(=O)N=[S@](N)(=O)c1ccc(Cl)cc1 [ANASIA-035-1] | – | > 64 | – | – | – | – | – | – | IC50 [2]: 18.3 µM
6 | CC(C)C[C@H](N)C(=O)N=[S@](N)(=O)c1cc(Cl)cs1.Cl [ANASIA-124-1] | – | – | 8 | 8 | 0.25 | – | 16 | 32 | MIC ([4]; Escherichia coli, BAA2469, read-out: Antibacterial Activity (MIC), G = E. coli BAA-2469): 1.59 µg/mL; Reduction in burden from vehicle control, Bladder 72 hr (E. coli UT189; 15 mg/kg/dose sc every 4 hours): 1.24 Log10 cfu/g or mL; Reduction in burden from vehicle control, Kidney 72 hr (E. coli UT189; 15 mg/kg/dose sc every 4 hours): 1.60 Log10 cfu/g or mL; Reduction in burden from vehicle control, Urine 48 hr (E. coli UT189; 15 mg/kg/dose sc every 4 hours): 0.71 Log10 cfu/g or mL; Reduction in burden from vehicle control, Urine 72 hr (E. coli UT189; 15 mg/kg/dose sc every 4 hours): 0.66 Log10 cfu/g or mL; Reduction in burden from vehicle control, Bladder 72 hr (E. coli UT189; 45 mg/kg/dose sc every 4 hours): 1.38 Log10 cfu/g or mL; Reduction in burden from vehicle control, Kidney 72 hr (E. coli UT189; 45 mg/kg/dose sc every 4 hours): 2.40 Log10 cfu/g or mL; Reduction in burden from vehicle control, Urine 48 hr (E. coli UT189; 45 mg/kg/dose sc every 4 hours): 1.85 Log10 cfu/g or mL; Reduction in burden from vehicle control, Urine 72 hr (E. coli UT189; 45 mg/kg/dose sc every 4 hours): 1.21 Log10 cfu/g or mL; IC50 [1]: 0.0213 µM
7 | CC[C@H](C)[C@H](N)C(=O)N=[S@@](N)(=O)c1cscc1C.Cl [ANASIA-079-2] | 0.372 | – | – | – | 64 | – | – | – | –
8 | CC[C@H](C)[C@H](N)C(=O)N=S(N)(=O)c1cc2ccccc2s1 (some centres unmarked) [ANASIA-037] | 2.74 | > 64 | > 64 | > 64 | > 64 | 32 (≈ 98.3 µM) | > 64 | > 64 | –
9 | CC[C@H](C)[C@H](N)C(=O)N=S(N)(=O)c1ccc(C)s1 (some centres unmarked) [ANASIA-031] | 6.7 | > 64 | > 64 | > 64 | > 64 | 64 (≈ 221 µM) | > 64 | > 64 | –
10 | CC[C@H](C)[C@H](N)C(=O)N=[S@](N)(=O)c1cccc(Oc2ccc(Cl)cc2)c1 [ANASIA-052-1] | – | > 64 | – | – | – | – | – | – | IC50 [2]: 37.7 µM
11 | CC[C@H](C)[C@H](N)C(=O)N=[S@@](N)(=O)c1cccc(Oc2ccc(Cl)cc2)c1 [ANASIA-052-2] | 40.1 | – | – | – | – | – | – | – | –
12 | CC[C@H](C)[C@H](N)C(=O)N=[S@@](N)(=O)c1ccsc1Cl [ANASIA-078-2] | 0.599 | – | – | – | – | – | – | – | –

Reference: patent US12247004B2, “2-amino-N-(amino-oxo-aryl-lambda6-sulfanylidene)acetamide compounds and their therapeutic use” (Oxford Drug Design Limited, priority 2019, dated 2025)
